Experiment [1] has as its target T1, human recombinant PARG (Homo sapiens, UniProt Q86W56).
T1 construct: Human PARG (amino acids 389-976; Uniprot ID Q86W56-1); 6xHis (N, cleaved yes); TEV cleavage site (N, cleaved yes); made in house; host or cells: PARG: E. coli BL21 (DE3); PARP1 substrate: High Five insect cells (baculovirus)
Put plainly: HTRF assay of PARG enzymatic activity with PARylated-PARP1 substrate. The format is biochemical. To be noted: geometric mean, n=14. On the technique in general: Time-resolved FRET reads energy transfer from a long-lived donor to a nearby acceptor.

Experiment [2] has as its system T026OV ovarian cancer patient-derived organoid. Put plainly: 7-day organoid colony formation, ATP content (Cell Titer Glo 3D). It is filed as cell-based, human. To be noted: T026OV PDO, 7 days. The source says:
The FU-97 (Cat #JCRB1074) human gastric cancer cell line and the Kuramochi (Cat #JCRB0098) and RMUG-S(Cat #IFO50320) human ovarian cancer cell lines were obtained from the National Institutes of Biomedical Innovation, Health and Nutrition's Japanese Collection of Research Bioresources (JCRB) (Ibaraki City, Osaka, Japan). The HCC1419 (Cat #CRL-2326) and HCC1428 (Cat #CRL-2327) human breast cancer cell lines and the NCI-H1650 (Cat #CRL-5883) and NCI-H1792 (Cat #CRL-5895) non-small cell lung cancer cell lines were obtained from ATCC (Manassas, Virginia, USA). The human gastric cancer cell lines GCIY (Cat #RCB0555) and SNU601 (Cat #CSC-C9686L) were obtained from the Riken Bioresource Research Center (Tsukuba, Ibaraki, Japan) and Creative Bioarray (Shirley, NY, USA), respectively. The T025OV ovarian cancer organoid model was developed from a patient-derived xenograft (PDX) model, which was developed from primary serous ovarian carcinoma cells obtained from Discovery Life Sciences (Huntsville, AL, USA, SN #350627149). T026OV organoids were developed from PDX cells obtained from The Jackson Laboratory (Bar Harbor, ME, USA, Cat #TM00335).
T025OV and T026OV PDOs were cultured in PDO complete media on a thin layer of growth-factor reduced Matrigel (Corning, Glendale, AZ, USA Cat #356231). […]
Compound 1 IC50 values for inhibition of organoid colony formation were determined by measuring ATP levels after 7 days of treatment utilizing Cell Titer Glo 3D reagent (Promega, Madison, WI, USA Cat #G9683). […] Luminescence values (RLU) were read-out using a Clariostar plate reader (BMG Labtech, Cary, NC). […]
In general terms: ATP-based viability assays read luminescence as a measure of living cells.

T1 sequence (Q86W56 389-976): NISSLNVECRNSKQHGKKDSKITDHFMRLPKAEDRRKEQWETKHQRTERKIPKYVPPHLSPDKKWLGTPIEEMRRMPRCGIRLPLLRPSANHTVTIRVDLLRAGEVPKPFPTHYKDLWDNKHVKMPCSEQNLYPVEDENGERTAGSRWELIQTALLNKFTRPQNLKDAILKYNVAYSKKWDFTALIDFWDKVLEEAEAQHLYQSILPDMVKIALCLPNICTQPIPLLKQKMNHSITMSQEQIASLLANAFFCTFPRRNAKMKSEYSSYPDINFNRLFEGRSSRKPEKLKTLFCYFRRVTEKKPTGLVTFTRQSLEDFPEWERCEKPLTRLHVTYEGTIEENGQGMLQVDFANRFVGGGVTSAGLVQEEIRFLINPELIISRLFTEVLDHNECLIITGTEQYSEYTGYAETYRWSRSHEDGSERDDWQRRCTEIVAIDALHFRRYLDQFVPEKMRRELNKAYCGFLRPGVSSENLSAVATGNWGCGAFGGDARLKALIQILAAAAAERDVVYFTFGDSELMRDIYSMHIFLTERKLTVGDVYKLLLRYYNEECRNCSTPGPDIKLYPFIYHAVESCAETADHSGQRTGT

For orientation: IC50 means the concentration that gives 50% inhibition. As a reminder, the IC90 is the concentration needed for an effect of 90%. `[2H]C([2H])(c1cnn(C)c1)N1C(=O)c2cc(S(=O)(=O)NC3(C)CC3)ccc2N2C1=NC[C@H]2C` [Compound 1, (R)-1-methyl-4-((1-methyl-1H-pyrazol-4-yl)methyl-d2)-N-(1-methylcyclopropyl)-5-oxo-1,2,4,5-tetrahydroimidazo[1,2-a]quinazoline-7-sulfonamide]: the IC50 in experiment [1] worked out at 85 nM; in experiment [2] (Homo sapiens, 168 h, geometric mean, read-out: IC50 inhibition of ATP content), 213 nM. In addition, the 90% effect concentration (IC90) in experiment [2] (Homo sapiens, 168 h, geometric mean, read-out: IC90 inhibition of ATP content) was found to be 567 nM. In experiment [2], the “maximum reduction in cellular ATP content” value is on record as “approximately 50%”.

The values above are taken from patent US20260272936A1, “TREATMENT OF CANCER WITH A PARG INHIBITOR” (858 Therapeutics, Inc., priority 2023, published 2026).
